This is an account of results in patent US20220308062A1, “METHODS FOR PREDICTING DRUG RESPONSIVENESS IN SAMPLES FROM CANCER SUBJECTS” (Board of Regents, The University of Texas System, priority 2019, published 2022).

For one experiment, the system named is A549 and H2009 cells. Description: CyTOF profiling of lung cancer cell lines. The experiment is classed as cell-based, human. On the procedure:
Cytometry by time of flight mass spectrometry (CyTOF). Antibodies were conjugated according to the manufacturer's instructions (Fluidigm, South San Francisco, Calif.) or purchased in pre-conjugated forms from the supplier (Fluidigm). […] The cells were harvested and stained with cisplatin (Fluidigm) and metal-conjugated surface antibodies sequentially for viability and surface staining. After fixation and permeabilization, the intracellular staining with metal-conjugated antibodies was performed. The cells were then labeled with an iridium-containing DNA intercalator (^191Ir^+, ^193Ir^+) to identify cell events before analysis on a Helios mass cytometer (Fluidigm). Signals were bead-normalized using EQ Four Element Calibration Beads (Fluidigm). Signals of samples were normalized using CyTOF software (Version 6.7.1014, Fluidigm). The generated files underwent signal cleanup and filtering for live/dead cells using Cytobank (https://www.cytobank.org/, Cytobank Inc.) and download gated Flow Cytometry Standard (FCS) file for further analysis using Cytofkit based on PhenoGraph algorithm, which was implemented in R and freely available from the Bioconductor website (https://bioconductor.org/packages/cytofkit/). CyTOF data was visualized using t-distributed stochastic neighbor embedding (t-SNE) algorithm and plotted on a continuum of protein expression with phenotypically related cells clustered together.
Cytometry by time-of-flight (CyTOF). Antibodies were conjugated in-house according to the manufacturer's instructions or purchased in pre-conjugated forms from the supplier (Fluidigm; Table 5). Single cells from cell lines, tumors, or PBMCs were harvested and stained with cisplatin and metal-conjugated surface antibodies sequentially for viability and surface staining. After fixation and permeabilization, cells were stained with metal-conjugated antibodies. The cells were then labeled with an iridium-containing DNA intercalator (^191Ir^+ or ^193Ir^+) for identification of cell events before analysis on a Helios mass cytometer. Signals were bead-normalized using EQ Four Element Calibration Beads.
Signals of samples were normalized using CyTOF software (Version 6.7.1014, Fluidigm). The generated files underwent signal cleanup and filtering for single cells using Cytobank (https://www.cytobank.org/). The gated Flow Cytometry Standard (FCS) file were downloaded for further analysis using Cytofkit. The PhenoGraph clustering algorithm in Cytofkit was implemented in R from the Bioconductor website (https://bioconductor.org/packages/cytofkit/). […] Epithelial and mesenchymal indices were calculated based on the average Z-score of epithelial and mesenchymal markers. […]

Another experiment deals with A549 lung cancer cells. Nature of the experiment: Luminex multi-cytokine assay. The experiment is classed as cell-based, human. The settings on record: A549, 40 nmol/L, 24, 48, 72 hr. Here is the method: Luminex multi-cytokine assay. […] Condition medium was harvested in 24, 48 and 72 hr after incubation. Condition medium was then subjected to a cytokine assay by using MILLIPLEX® MAP Human Cytokine Panel 1 (38 Plex) (Millipore, HCYTA-60K-PXBK38) in Luminex™ FLEXMAP 3D™ Instrument System.

Experiment [1] concerns H2009 cells. Nature of the experiment: Proliferation assay (IncuCyte ZOOM), H2009. The experiment is classed as cell-based. The settings on record: Homo sapiens, NCI-H2009; read-out: IC50 from proliferation curves. On the procedure: Analysis was performed using IncuCyte ZOOM (Essen BioScience) with images acquired every 3 hr for up to 72 hr. Four images (proliferation) and one image (wound healing) were captured per well for each time point. Data were normalized to controls, and values for 50% effective concentration were calculated using Prism V7.0 (GraphPad software, San Diego, Calif.).
In vitro phenotypic assay. […] Proliferation and migration curves were generated using IncuCyte ZOOM (Essen BioScience) with images acquired every 3 hr over a 72 hr timeframe. Images were captured per well for each time point. Data were normalized to controls, and values for 50% inhibitory concentration were calculated using Prism V8.0 (GraphPad software).

In experiment [2] the test system is H2009 cells. Description: Atomic force microscopy, H2009. The experiment is classed as cell-based, human. An excerpt:
Atomic force microscopy. […] Briefly, live cells cultured were imaged in 60 mm dishes with a Nanoscope Catalyst AFM (Bruker, Billerica, Mass.) mounted on a Nikon Ti inverted epifluorescent microscope. […] To collect the nanomechanical phenotypes of single cells immersed in culture media, 30×30 μm images were captured with a resolution of 256×256 pixels using the PeakForce Quantitative Nanomechanical Mapping (QNM) AFM (Bruker, Billerica, Mass.). For imaging, […]-AIR (Bruker, Billerica, Mass.) probes were applied with the nominal spring constant 0.4 N/m. Following the Sneddon model and the Sokolov's rules, nanomechanical parameters were calculated with Nanoscope Analysis software v.1.7 (Bruker, Billerica, Mass.) using retrace images. Images of at least 15 cells representing each tested case in three biological replicates were collected.
Atomic force microscopy (AFM). […] Briefly, live cells cultured in 60 mm dishes were imaged with a Nanoscope Catalyst AFM (Bruker) mounted on a Nikon Ti inverted epifluorescent microscope. […] To collect the nanomechanical phenotypes of single cells immersed in culture media, 30×30 μm images were captured with a resolution of 256×256 pixels using the Peak Force Quantitative Nanomechanical Mapping (QNM) AFM (Bruker). For imaging, […]-AIR probes were used with the nominal spring constant 0.4 N/m. Following the Sneddon model and the Sokolov's rules, nanomechanical parameters were calculated with Nanoscope Analysis software v.1.7 using retrace images.

Consider `CN1CCN(Cc2ccc(Nc3ncc(Cl)c(Nc4ccccc4S(=O)(=O)N(C)C)n3)cc2)CC1` [TP-0903], for which the “phosphorylated STAT3 (pSTAT3) levels (CyTOF)” value in the experiment with A549 and H2009 cells (A549, 40 nmol/L) was “dramatically increased”. Besides, in the experiment on A549 and H2009 cells (A549 subpopulations #6-8, 40 nmol/L), the “SMAD4 (CyTOF)” value is “suppressed”. The “JAK1-pSTAT3 expression (CyTOF)” value in the experiment on A549 and H2009 cells (H2009 subpopulations #15 and 16 after treatment) is given as “amplified”. In the experiment with A549 and H2009 cells (cell lines, 40 nmol/L), the “CD133 (CyTOF)” value was “elevated”. The “IL-8, VEGF, and IL-11 secretion” value with A549 lung cancer cells is listed as “decreased”. Besides, the IC50 with H2009 cells [1] amounted to 35.5 nM. Also, the deformation result with H2009 cells [2] (H2009) was “not significantly affected”. For the same compound, in the experiment on H2009 cells [2] (H2009, 40 nmol/L, 24 hr), the increase of adhesion was 35% and the increase of stiffness is reported as 61%.
